From PubChem BioAssay AID248 (DTP/NCI, 2004) come the findings set out here.

The subject of this experiment is L1210 leukemia ip in BDF1 mice, survival T/C. Briefly: NCI In Vivo Anticancer Drug Screen. Data for tumor model L1210 Leukemia (intraperitoneal) in B6D2F1 (BDF1) mice. Conditions: endpoint: mean survival time, higher = longer survival. The procedure, abridged:
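Transplanted-tumor mice were given test agent; controls received vehicle only. Survival readings from the two groups were divided (treated over control).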

The mark [1] stands for this setting: dose: 100.0 mg/kg/injection, schedule: Q01DX009 (ip), vehicle: Klucel (hydroxypropylcellulose) (HPC).
Where [2] appears, read: dose: 100.0 mg/kg/injection, schedule: Q04DX003 (ip), vehicle: Klucel (hydroxypropylcellulose) (HPC).
[3] abbreviates: dose: 200.0 mg/kg/injection, schedule: Q01DX009 (ip), vehicle: Klucel (hydroxypropylcellulose) (HPC).
Setting [4] is: dose: 200.0 mg/kg/injection, schedule: Q04DX003 (ip), vehicle: Klucel (hydroxypropylcellulose) (HPC).
The mark [5] stands for this setting: dose: 100.0 mg/kg/injection, schedule: Q04DX003 (ip), vehicle: saline.
[6] abbreviates: dose: 200.0 mg/kg/injection, schedule: Q04DX003 (ip), vehicle: saline.
Where [7] appears, read: dose: 400.0 mg/kg/injection, schedule: Q04DX003 (ip), vehicle: saline.
The mark [8] stands for this setting: dose: 400.0 mg/kg/injection, schedule: Q01DX009 (ip), vehicle: Klucel (hydroxypropylcellulose) (HPC).
Where [9] appears, read: dose: 400.0 mg/kg/injection, schedule: Q04DX003 (ip), vehicle: Klucel (hydroxypropylcellulose) (HPC).
[10] abbreviates: dose: 100.0 mg/kg/injection, schedule: Q04DX003 (ip), vehicle: saline with Tween-80.
Where [11] appears, read: dose: 100.0 mg/kg/injection, schedule: Q01DX001 (ip), vehicle: saline.
Where [12] appears, read: dose: 200.0 mg/kg/injection, schedule: Q01DX001 (ip), vehicle: saline.
[13] abbreviates: dose: 50.0 mg/kg/injection, schedule: Q01DX001 (ip), vehicle: carboxymethylcellulose (CMC).
Where [14] appears, read: dose: 100.0 mg/kg/injection, schedule: Q01DX001 (ip), vehicle: carboxymethylcellulose (CMC).
Setting [15] is: dose: 200.0 mg/kg/injection, schedule: Q01DX001 (ip), vehicle: carboxymethylcellulose (CMC).
Where [16] appears, read: dose: 400.0 mg/kg/injection, schedule: Q01DX001 (ip), vehicle: carboxymethylcellulose (CMC).
Where [17] appears, read: dose: 100.0 mg/kg/injection, schedule: Q04DX002 (ip), vehicle: Klucel (hydroxypropylcellulose) (HPC).
[18] abbreviates: dose: 200.0 mg/kg/injection, schedule: Q04DX002 (ip), vehicle: Klucel (hydroxypropylcellulose) (HPC).

Each structure is given as a SMILES string. Inconclusive results and toxic doses are left out.

Regarding `Cc1ccc(NC(=O)Nc2ccc(C3=NCCN3)cc2)cc1NC(=O)Nc1ccc(C2=NCCN2)cc1`, the T/C is 105 % of control (dose: 2.25 mg/kg/injection, schedule: Q01DX Z (ip), vehicle: water); 102 % of control (dose: 4.5 mg/kg/injection, schedule: Q01DX Z (ip), vehicle: water); 92 % of control (dose: 9.0 mg/kg/injection, schedule: Q01DX Z (ip), vehicle: water); 100 % of control (dose: 18.0 mg/kg/injection, schedule: Q01DX Z (ip), vehicle: water).
`NC(=O)NC=O`: the T/C runs as follows: (dose: 50.0 mg/kg/injection, schedule: Q01DX009 (ip), vehicle: Klucel (hydroxypropylcellulose) (HPC)) 96 % of control; (dose: 50.0 mg/kg/injection, schedule: Q04DX003 (ip), vehicle: Klucel (hydroxypropylcellulose) (HPC)) 101 % of control; under setting [1], 102 % of control; under setting [2], 105 % of control; under setting [3], 96 % of control; under setting [4], 115 % of control.
As to `CC(C)=CC=O`, the T/C runs as follows: (dose: 100.0 mg/kg/injection, schedule: Q01DX009 (ip), vehicle: saline sonified) 97 % of control; under setting [5], 96 % of control; (dose: 200.0 mg/kg/injection, schedule: Q01DX009 (ip), vehicle: saline sonified) 100 % of control; under setting [6], 97 % of control; under setting [7], 103 % of control.
For `N#CC(c1ccccc1)c1ccc(F)cc1` (stereo unspecified), the T/C by setting is: under setting [1], 104 % of control; under setting [2], 100 % of control; under setting [3], 97 % of control; under setting [4], 96 % of control; under setting [8], 98 % of control; under setting [9], 98 % of control.
Consider `COC1OC(C2N(c3ccccc3)CCN2c2ccccc2)=CC(OC(C)=O)C1OC(C)=O` (stereo unspecified), for which the T/C was 86 % of control under setting [1] and 90 % of control under setting [8].
Turning to `O=C(/C=C\c1ccc2c(c1)OCO2)/C=C/c1ccc2c(c1)OCO2`, the T/C runs as follows: under setting [1], 97 % of control; under setting [2], 92 % of control; under setting [10], 97 % of control; under setting [3], 88 % of control; under setting [4], 101 % of control; (dose: 200.0 mg/kg/injection, schedule: Q04DX003 (ip), vehicle: saline with Tween-80) 94 % of control. Also, the T/C reads like this: under setting [8], 87 % of control; under setting [9], 94 % of control; (dose: 400.0 mg/kg/injection, schedule: Q04DX003 (ip), vehicle: saline with Tween-80) 90 % of control.
Consider `Cc1cc(O)c(C(N)=O)c(=O)[nH]1`, for which the T/C under setting [11] was 95 % of control; the T/C under setting [12] is 98 % of control; the T/C (dose: 400.0 mg/kg/injection, schedule: Q01DX001 (ip), vehicle: saline) is 101 % of control.
For the compound `CN=C(c1ccc(NC(=O)c2ccc(C(=O)Nc3ccc(C(=NC)N(C)C)cc3)c(Cl)c2)cc1)N(C)C`, the T/C runs as follows: (dose: 0.94 mg/kg/injection, schedule: Q01DX Z (ip), vehicle: saline) 98 % of control; (dose: 1.88 mg/kg/injection, schedule: Q01DX Z (ip), vehicle: saline) 87 % of control.
For `NC(=S)N/N=C\c1nccc2c(N)cccc12`, the T/C is 122 % of control (dose: 6.25 mg/kg/injection, schedule: Q01DX009 (ip), vehicle: saline with Tween-80) and 187 % of control (dose: 50.0 mg/kg/injection, schedule: Q01DX009 (ip), vehicle: saline with Tween-80).
As for `CC(C)(C)NC(=O)CCC(=O)O`, the T/C was 89 % of control (dose: 75.0 mg/kg/injection, schedule: Q04DX002 (ip), vehicle: Klucel (hydroxypropylcellulose) (HPC)); 92 % of control (dose: 150.0 mg/kg/injection, schedule: Q04DX002 (ip), vehicle: Klucel (hydroxypropylcellulose) (HPC)); 100 % of control (dose: 300.0 mg/kg/injection, schedule: Q04DX002 (ip), vehicle: Klucel (hydroxypropylcellulose) (HPC)).
Consider `ClC1=C(Cl)C2(Cl)CC(Cl)C1C2(Cl)Cl` (stereo unspecified), for which the T/C (dose: 10.0 mg/kg/injection, schedule: Q01DX001 (ip), vehicle: acetone) is 105 % of control and the T/C (dose: 20.0 mg/kg/injection, schedule: Q01DX001 (ip), vehicle: acetone) was 105 % of control.
As to `NNC(=O)C1C2CCCCC21` (stereo unspecified), under setting [10], the T/C was 107 % of control.
Take `Cc1cc(C)c(C(=O)OC(c2ccccc2)C(c2ccccc2)N2CCOCC2)c(C)c1` (stereo unspecified): the T/C is, setting by setting: (dose: 75.0 mg/kg/injection, schedule: Q01DX001 (ip), vehicle: saline) 96 % of control; (dose: 150.0 mg/kg/injection, schedule: Q01DX001 (ip), vehicle: saline) 97 % of control; (dose: 300.0 mg/kg/injection, schedule: Q01DX001 (ip), vehicle: saline) 86 % of control.
As for `Cc1ccccc1NP1(=O)OCCCN1Cc1ccc(Cl)c(Cl)c1` (stereo unspecified), the T/C is 98 % of control under setting [13], 98 % of control under setting [14], 98 % of control under setting [15] and 93 % of control under setting [16].
In the case of `[O-]c1c[n+](-c2ccc(Cl)cc2Cl)no1`, the T/C is 100 % of control (dose: 50.0 mg/kg/injection, schedule: Q04DX002 (ip), vehicle: Klucel (hydroxypropylcellulose) (HPC)); 100 % of control under setting [1]; 106 % of control under setting [17]; 103 % of control under setting [18].
`CCCCCCCCC1OCC(C)(C)C(C(C)C)O1` (stereo unspecified): the T/C was 102 % of control under setting [13], 104 % of control under setting [14], 107 % of control under setting [15] and 104 % of control under setting [16].
As for `CCCCCCCCCCN=C(N)N/C(N)=N/S(=O)(=O)c1ccc(OCCCCCCCCC)cc1`, the T/C is, setting by setting: under setting [17], 97 % of control; under setting [18], 89 % of control; (dose: 400.0 mg/kg/injection, schedule: Q04DX002 (ip), vehicle: Klucel (hydroxypropylcellulose) (HPC)) 89 % of control.
On to `O=[N+]([O-])c1ccc(C=Nc2ccc(OCc3ccccc3)cc2)s1`, for which the T/C was 91 % of control under setting [2], 88 % of control under setting [4] and 91 % of control under setting [9].
`COC1OCC(Cl)C(O)C1OS(C)(=O)=O` (stereo unspecified): the T/C by setting is: (dose: 100.0 mg/kg/injection, schedule: Q04DX002 (ip), vehicle: saline with Tween-80) 96 % of control; (dose: 200.0 mg/kg/injection, schedule: Q04DX002 (ip), vehicle: saline with Tween-80) 100 % of control; (dose: 400.0 mg/kg/injection, schedule: Q04DX002 (ip), vehicle: saline with Tween-80) 104 % of control.
`C=C1CCC2CCCN2C1=O` (stereo unspecified): the T/C (dose: 25.0 mg/kg/injection, schedule: Q01DX001 (ip), vehicle: saline) is 94 % of control; the T/C (dose: 50.0 mg/kg/injection, schedule: Q01DX001 (ip), vehicle: saline) was 97 % of control; the T/C under setting [11] was 108 % of control; the T/C under setting [12] is 87 % of control.
As for `COc1cccc(CC(N)=O)c1OC`, the T/C is 97 % of control (dose: 100.0 mg/kg/injection, schedule: Q01DX009 (ip), vehicle: saline); 95 % of control under setting [5]; 90 % of control (dose: 200.0 mg/kg/injection, schedule: Q01DX009 (ip), vehicle: saline); 92 % of control under setting [6]; 97 % of control under setting [7].
Regarding `CCOc1ccc(/C=N/NS(=O)(=O)c2ccccc2)cc1OC`, the T/C runs as follows: (dose: 100.0 mg/kg/injection, schedule: Q01DX009 (ip), vehicle: saline with Tween-80) 94 % of control; (dose: 100.0 mg/kg/injection, schedule: Q04DX003 (ip), vehicle: saline sonified) 107 % of control; (dose: 200.0 mg/kg/injection, schedule: Q01DX009 (ip), vehicle: saline with Tween-80) 98 % of control; (dose: 200.0 mg/kg/injection, schedule: Q04DX003 (ip), vehicle: saline sonified) 86 % of control; (dose: 400.0 mg/kg/injection, schedule: Q01DX009 (ip), vehicle: saline with Tween-80) 89 % of control; (dose: 400.0 mg/kg/injection, schedule: Q04DX003 (ip), vehicle: saline sonified) 98 % of control.
With `C[N+](C)(C)/N=C1\CC2CCC1C2` (stereo unspecified), the T/C was 98 % of control under setting [11] and 101 % of control under setting [12].
